Consider 10 compounds from patent US20240189289A1, “INHIBITORS OF EPHB3 SIGNALING” (The Brigham and Women`s Hospital, Inc., priority 2021, published 2024).

SMILES strings stand for the structures. Where two headings read alike, the source gives them in different places.

What all share (format): biochemical
One assay concerns the target T1, EphB3 (Homo sapiens, UniProt P54753).
T1 sequence (P54753 34-998): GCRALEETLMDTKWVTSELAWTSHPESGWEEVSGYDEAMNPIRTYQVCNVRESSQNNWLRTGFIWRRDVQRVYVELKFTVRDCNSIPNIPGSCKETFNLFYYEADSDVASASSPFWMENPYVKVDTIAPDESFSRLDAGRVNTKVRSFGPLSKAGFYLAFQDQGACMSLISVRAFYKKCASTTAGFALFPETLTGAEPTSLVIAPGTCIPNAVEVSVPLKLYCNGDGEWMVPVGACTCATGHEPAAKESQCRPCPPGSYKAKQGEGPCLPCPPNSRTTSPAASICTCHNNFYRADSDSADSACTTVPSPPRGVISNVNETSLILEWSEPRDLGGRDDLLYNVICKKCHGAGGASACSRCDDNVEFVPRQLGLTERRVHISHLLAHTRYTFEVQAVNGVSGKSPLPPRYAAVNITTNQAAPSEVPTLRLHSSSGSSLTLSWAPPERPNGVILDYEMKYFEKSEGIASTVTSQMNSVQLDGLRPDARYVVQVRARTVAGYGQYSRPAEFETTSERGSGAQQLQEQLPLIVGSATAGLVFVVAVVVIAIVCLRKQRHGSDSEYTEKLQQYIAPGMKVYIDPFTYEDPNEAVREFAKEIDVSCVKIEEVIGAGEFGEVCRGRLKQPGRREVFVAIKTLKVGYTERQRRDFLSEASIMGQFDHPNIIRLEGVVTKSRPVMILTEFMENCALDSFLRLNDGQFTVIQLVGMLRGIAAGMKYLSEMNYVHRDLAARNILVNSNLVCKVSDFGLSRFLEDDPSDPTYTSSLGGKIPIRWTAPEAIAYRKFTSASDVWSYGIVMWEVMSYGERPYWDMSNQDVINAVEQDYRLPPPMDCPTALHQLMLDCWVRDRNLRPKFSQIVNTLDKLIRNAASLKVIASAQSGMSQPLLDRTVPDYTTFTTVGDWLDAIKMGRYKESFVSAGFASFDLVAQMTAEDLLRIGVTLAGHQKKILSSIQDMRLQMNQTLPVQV
Kind of assay: EphB3 radiometric kinase activity assay (33P ATP filter binding). Conditions: for remaining activity at 0.01 µM: 10 nM compound, read-out: EphB3 % act 10 nM; for remaining activity at 0.03 µM: 30 nM compound, read-out: EphB3 % act 30 nM; for remaining activity at 0.1 µM: 100 nM compound, read-out: EphB3 % act 100 nM; for remaining activity at 0.3 µM: 300 nM compound, read-out: EphB3 % act 300 nM. The protocol: EphB3 radiometric kinase activity assay. To study the EphB3 kinase activity, a radioactive filter binding assay using 33P ATP was performed as described at the […] International Centre for Kinase profiling. […] The mix was harvested onto P81 filter plates and counts were read on a Topcount NXT.

The target in the next assay is EphA4 (Homo sapiens, UniProt P54764). Briefly: Eph receptor kinase activity assay (radiometric), EphA4. Conditions: for remaining activity at 0.01 µM: 10 nM compound, read-out: EphA4 % act 10 nM; for remaining activity at 0.03 µM: 30 nM compound, read-out: EphA4 % act 30 nM; for remaining activity at 0.1 µM: 100 nM compound, read-out: EphA4 % act 100 nM; for remaining activity at 0.3 µM: 300 nM compound, read-out: EphA4 % act 300 nM.

A further assay concerns the target T2, EphB4 (Homo sapiens, UniProt P54760).
T2 sequence (P54760 16-987): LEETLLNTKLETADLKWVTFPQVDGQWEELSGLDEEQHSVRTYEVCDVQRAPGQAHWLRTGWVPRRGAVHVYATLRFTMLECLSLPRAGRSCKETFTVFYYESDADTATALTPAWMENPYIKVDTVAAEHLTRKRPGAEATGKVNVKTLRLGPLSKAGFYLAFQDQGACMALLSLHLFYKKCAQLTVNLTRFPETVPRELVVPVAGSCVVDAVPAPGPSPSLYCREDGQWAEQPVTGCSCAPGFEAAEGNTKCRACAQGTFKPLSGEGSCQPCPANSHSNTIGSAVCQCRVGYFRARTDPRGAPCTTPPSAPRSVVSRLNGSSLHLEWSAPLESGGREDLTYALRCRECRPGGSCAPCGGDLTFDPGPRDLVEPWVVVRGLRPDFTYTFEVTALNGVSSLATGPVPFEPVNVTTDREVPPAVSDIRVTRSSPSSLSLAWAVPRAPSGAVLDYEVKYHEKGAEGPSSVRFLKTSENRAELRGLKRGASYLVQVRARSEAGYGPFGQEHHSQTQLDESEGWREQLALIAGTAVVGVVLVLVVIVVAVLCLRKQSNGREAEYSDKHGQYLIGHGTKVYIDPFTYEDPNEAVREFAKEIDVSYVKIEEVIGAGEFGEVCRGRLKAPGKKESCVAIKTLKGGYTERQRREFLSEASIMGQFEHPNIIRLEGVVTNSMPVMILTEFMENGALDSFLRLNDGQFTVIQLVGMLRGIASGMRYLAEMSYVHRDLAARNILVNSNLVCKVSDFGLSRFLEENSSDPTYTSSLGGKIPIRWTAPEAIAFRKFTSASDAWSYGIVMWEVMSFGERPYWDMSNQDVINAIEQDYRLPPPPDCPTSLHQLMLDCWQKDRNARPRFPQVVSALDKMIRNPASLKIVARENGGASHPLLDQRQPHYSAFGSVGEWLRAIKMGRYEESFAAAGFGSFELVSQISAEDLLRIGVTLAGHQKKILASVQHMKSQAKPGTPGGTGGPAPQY
Kind of assay: Eph receptor kinase activity assay (radiometric), EphB4. Conditions: for remaining activity at 0.01 µM: 10 nM compound, read-out: EphB4 % act 10 nM; for remaining activity at 0.03 µM: 30 nM compound, read-out: EphB4 % act 30 nM; for remaining activity at 0.1 µM: 100 nM compound, read-out: EphB4 % act 100 nM; for remaining activity at 0.3 µM: 300 nM compound, read-out: EphB4 % act 300 nM.

The next assay deals with EphA2 (Homo sapiens, UniProt P29317). Kind of assay: Eph receptor kinase activity assay (radiometric), EphA2. Conditions: for remaining activity at 0.01 µM: 10 nM compound, read-out: EphA2 % act 10 nM; for remaining activity at 0.03 µM: 30 nM compound, read-out: EphA2 % act 30 nM; for remaining activity at 0.1 µM: 100 nM compound, read-out: EphA2 % act 100 nM; for remaining activity at 0.3 µM: 300 nM compound, read-out: EphA2 % act 300 nM.

The mark [1] stands for this setting: Example 14, read-out: IC50 (μM), EphB3 receptor kinase inhibitory activity.

Sequence of EphA4 (P54764 20-986): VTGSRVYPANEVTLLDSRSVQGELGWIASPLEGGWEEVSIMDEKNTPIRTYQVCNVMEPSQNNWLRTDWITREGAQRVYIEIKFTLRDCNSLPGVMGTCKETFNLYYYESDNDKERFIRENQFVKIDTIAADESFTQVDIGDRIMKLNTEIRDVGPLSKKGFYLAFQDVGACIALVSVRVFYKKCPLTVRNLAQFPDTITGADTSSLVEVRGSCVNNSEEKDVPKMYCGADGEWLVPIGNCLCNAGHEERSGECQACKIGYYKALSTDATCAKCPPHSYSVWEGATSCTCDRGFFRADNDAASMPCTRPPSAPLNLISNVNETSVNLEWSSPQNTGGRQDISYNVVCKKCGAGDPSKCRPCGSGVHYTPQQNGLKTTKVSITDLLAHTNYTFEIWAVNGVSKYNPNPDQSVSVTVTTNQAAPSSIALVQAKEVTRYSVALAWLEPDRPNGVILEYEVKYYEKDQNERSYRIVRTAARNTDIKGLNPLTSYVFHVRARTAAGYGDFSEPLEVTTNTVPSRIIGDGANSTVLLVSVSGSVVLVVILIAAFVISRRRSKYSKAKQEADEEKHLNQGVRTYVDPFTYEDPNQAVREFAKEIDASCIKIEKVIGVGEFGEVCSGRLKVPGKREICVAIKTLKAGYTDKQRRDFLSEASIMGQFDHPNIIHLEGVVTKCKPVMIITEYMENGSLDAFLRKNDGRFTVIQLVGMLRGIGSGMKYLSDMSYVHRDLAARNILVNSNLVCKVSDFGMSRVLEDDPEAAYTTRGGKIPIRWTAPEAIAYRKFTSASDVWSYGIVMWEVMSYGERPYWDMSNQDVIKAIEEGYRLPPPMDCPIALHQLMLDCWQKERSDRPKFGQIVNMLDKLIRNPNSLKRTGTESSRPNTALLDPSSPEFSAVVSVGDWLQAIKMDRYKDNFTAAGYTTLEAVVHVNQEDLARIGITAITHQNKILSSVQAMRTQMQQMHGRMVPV
Sequence of EphA2 (P29317 24-976): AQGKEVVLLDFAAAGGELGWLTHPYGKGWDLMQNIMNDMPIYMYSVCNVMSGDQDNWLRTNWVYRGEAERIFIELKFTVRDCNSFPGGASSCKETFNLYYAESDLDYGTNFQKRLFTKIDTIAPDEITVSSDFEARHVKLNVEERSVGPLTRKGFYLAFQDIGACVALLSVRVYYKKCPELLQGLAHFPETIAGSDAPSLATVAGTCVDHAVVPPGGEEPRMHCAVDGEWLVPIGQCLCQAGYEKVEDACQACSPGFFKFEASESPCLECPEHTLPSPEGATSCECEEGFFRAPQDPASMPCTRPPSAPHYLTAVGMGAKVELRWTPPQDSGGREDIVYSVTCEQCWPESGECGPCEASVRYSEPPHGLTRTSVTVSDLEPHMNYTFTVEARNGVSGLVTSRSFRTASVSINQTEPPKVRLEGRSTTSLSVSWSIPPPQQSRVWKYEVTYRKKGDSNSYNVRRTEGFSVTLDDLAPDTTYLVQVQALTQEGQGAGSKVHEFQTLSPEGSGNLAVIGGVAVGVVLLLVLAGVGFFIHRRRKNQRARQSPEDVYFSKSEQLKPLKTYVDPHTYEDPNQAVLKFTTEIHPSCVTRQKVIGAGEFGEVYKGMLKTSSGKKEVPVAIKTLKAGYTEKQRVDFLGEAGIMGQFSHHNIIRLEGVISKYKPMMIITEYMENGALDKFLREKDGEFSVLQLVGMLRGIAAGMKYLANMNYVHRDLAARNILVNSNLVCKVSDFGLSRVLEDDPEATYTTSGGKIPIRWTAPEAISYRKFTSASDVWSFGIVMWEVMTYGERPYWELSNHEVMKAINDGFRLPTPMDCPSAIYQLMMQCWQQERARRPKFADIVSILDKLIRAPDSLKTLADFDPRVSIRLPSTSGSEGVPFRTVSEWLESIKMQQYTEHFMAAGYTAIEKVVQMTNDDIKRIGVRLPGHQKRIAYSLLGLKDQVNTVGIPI

As to `O=C(Nc1ncccc1Cl)c1cnc2ccc(C3CCNCC3)cn12` [compound 120, N-(3-chloropyridin-2-yl)-6-(piperidin-4-yl)imidazo[1,2-a]pyridine-3-carboxamide], the IC50 – broadly, the concentration that gives 50% inhibition – on EphB3 (setting [1]) is 2.9 µM.

Consider `COc1ccc(-c2ccc3ncc(C(=O)Nc4ccccc4Cl)n3c2)cc1` [compound 102, N-(2-Chlorophenyl)-6-(4-methoxyphenyl)imidazo[1,2-a]pyridine-3-carboxamide], for which the remaining activity at 0.01 µM at EphA4 was found to be 80.4%; at EphB3, 92.4%; on EphB4 it was 104%; at EphA2, 79.9%. Also, the remaining activity at 0.03 µM stood at 74.1% at EphA4, 92.7% on EphB3, 103% on EphB4 and 69.4% on EphA2. For the same compound, the remaining activity at 0.1 µM was found to be 83.9% on EphA4, 88.6% on EphB3, 98% at EphB4 and 59.6% at EphA2.

As for `NCc1cccc(-c2ccc3ncc(C(=O)Nc4ccccc4Cl)n3c2)c1` [compound 108, 6-(3-(Aminomethyl)phenyl)-N-(2-chlorophenyl)imidazo[1,2-a]pyridine-3-carboxamide], the remaining activity at 0.01 µM on EphA4 was 36%; on EphB3, 46%; at EphB4, 62%; on EphA2, 55%. For the same compound, the remaining activity at 0.1 µM on EphA4 was found to be 12%; at EphB3 it was 7%; on EphB4 it was 12%; at EphA2, 25%. Also, the remaining activity at 0.3 µM at EphA4 is 6%; on EphB3, 4%; on EphB4 it was 2%; on EphA2, 11%.

`COc1cccc(NC(=O)c2cnc3ccc(C4CCNCC4)cn23)c1Cl` [compound 117, N-(2-Chloro-3-methoxyphenyl)-6-(piperidin-4-yl)imidazo[1,2-a]pyridine-3-carboxamide]: the remaining activity at 0.01 µM is 74.7% on EphA4, 110% at EphB3, 104% on EphB4 and 95.8% on EphA2. Moreover, the remaining activity at 0.03 µM worked out at 75.9% at EphA4, 110% on EphB3, 95.6% at EphB4 and 83.8% on EphA2. Also, the remaining activity at 0.1 µM on EphA4 is 89.8%; on EphB3 it was 102%; at EphB4 it was 86.7%; at EphA2, 80.8%. Further, the IC50 at EphA4 (Table 3, Example 13) was less than 10 nM; on EphB3 (Table 3, Example 13, read-out: EphB3 (nM) IC50), less than 0.01 µM; against EphB4 (Table 3, Example 13), less than 10 nM; against EphA2 (Table 3, Example 13) it was less than 10 nM.

With `CN(C)CC(=O)N1CCC(c2ccc3ncc(C(=O)Nc4ccccc4Cl)n3c2)CC1` [compound 119, N-(2-Chlorophenyl)-6-(1-(dimethylglycyl)piperidin-4-yl)imidazo[1,2-a]pyridine-3-carboxamide], the remaining activity at 0.01 µM at EphA4 was 80.3%; at EphB3 it was 116%; on EphB4, 87.2%; at EphA2, 71.3%. In addition, the remaining activity at 0.03 µM turned out to be 74.2% at EphA4, 90.3% at EphB3, 75.9% at EphB4 and 61.2% at EphA2. Also, the remaining activity at 0.1 µM is 72.8% on EphA4, 78.3% at EphB3, 76.3% on EphB4 and 45.1% on EphA2.

`O=C(Nc1cccc2c1CCO2)c1cnc2ccc(C3CCNCC3)cn12` [compound 124, N-(2,3-dihydrobenzofuran-4-yl)-6-(piperidin-4-yl)imidazo[1,2-a]pyridine-3-carboxamide]: the IC50 at EphB3 (setting [1]) was found to be 84 µM.

In the case of `NCc1ccc(-c2ccc3ncc(C(=O)Nc4ccccc4Cl)n3c2)cc1` [compound 109, 6-(4-(Aminomethyl)phenyl)-N-(2-chlorophenyl)imidazo[1,2-a]pyridine-3-carboxamide], the remaining activity at 0.01 µM on EphA4 came to 24%; on EphB3, 22%; at EphB4, 22%; on EphA2, 77%. Further, the remaining activity at 0.1 µM at EphA4 was 8%; on EphB3 it was 6%; at EphB4 it was 6%; on EphA2, 11%. Moreover, the remaining activity at 0.3 µM on EphA4 was 5%; on EphB3 it was 4%; at EphB4 it was 3%; at EphA2, 0%.

For the compound `CN1CCC(c2ccc3ncc(C(=O)Nc4ccccc4Cl)n3c2)CC1` [compound 122, N-(2-chlorophenyl)-6-(1-methylpiperidin-4-yl)imidazo[1,2-a]pyridine-3-carboxamide], the 50% inhibitory concentration (IC50) on EphB3 (setting [1]) was 0.089 µM.

Regarding `O=C(Nc1ccncc1Cl)c1cnc2ccc(C3CCNCC3)cn12` [compound 121, N-(3-chloropyridin-4-yl)-6-(piperidin-4-yl)imidazo[1,2-a]pyridine-3-carboxamide], the IC50 at EphB3 (setting [1]) stood at 8.1 µM.

Turning to `O=C(Nc1cccc(F)c1Cl)c1cnc2ccc(C3CCNCC3)cn12` [compound 123, N-(2-chloro-3-fluorophenyl)-6-(piperidin-4-yl)imidazo[1,2-a]pyridine-3-carboxamide], the IC50 at EphB3 (setting [1]) was found to be 6 µM.
